“And” between values parts separate entries of the source, which are not always exact repeats. Equal values may be shown once. Inconclusive results and toxic doses are left out. The calls were made as follows: active = survival T/C of 150% or more; inactive = T/C below 125% in these data.
Test system: CD2F1 mice, L1210 leukemia ip, survival T/C
Assay: NCI In Vivo Anticancer Drug Screen. Data for tumor model L1210 Leukemia (intraperitoneal) in CD2F1 (CDF1) mice
Details: higher = longer survival
In short: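 In this screen, transplantable tumors were grown in mice given either the compound or its vehicle. Results were expressed as the treated measurement relative to the control measurement.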

[1] = endpoint: mean survival time, dose: 100.0 mg/kg/injection, schedule: Q04DX003 (ip), vehicle: Klucel (hydroxypropylcellulose) (HPC)
[2] = endpoint: mean survival time, dose: 200.0 mg/kg/injection, schedule: Q04DX003 (ip), vehicle: Klucel (hydroxypropylcellulose) (HPC)
[3] = endpoint: mean survival time, dose: 400.0 mg/kg/injection, schedule: Q04DX003 (ip), vehicle: Klucel (hydroxypropylcellulose) (HPC)
[4] = endpoint: mean survival time, dose: 50.0 mg/kg/injection, schedule: Q04DX002 (ip), vehicle: saline with Tween-80
[5] = endpoint: mean survival time, dose: 100.0 mg/kg/injection, schedule: Q04DX002 (ip), vehicle: saline with Tween-80
[6] = endpoint: mean survival time, dose: 200.0 mg/kg/injection, schedule: Q04DX002 (ip), vehicle: saline with Tween-80
[7] = endpoint: mean survival time, dose: 100.0 mg/kg/injection, schedule: Q01DX009 (ip), vehicle: saline with Tween-80
[8] = endpoint: mean survival time, dose: 200.0 mg/kg/injection, schedule: Q01DX009 (ip), vehicle: saline with Tween-80
[9] = endpoint: mean survival time, dose: 400.0 mg/kg/injection, schedule: Q01DX009 (ip), vehicle: saline with Tween-80
[10] = endpoint: mean survival time, dose: 100.0 mg/kg/injection, schedule: Q04DX003 (ip), vehicle: saline with Tween-80
[11] = endpoint: mean survival time, dose: 200.0 mg/kg/injection, schedule: Q04DX003 (ip), vehicle: saline with Tween-80
[12] = endpoint: mean survival time, dose: 400.0 mg/kg/injection, schedule: Q04DX003 (ip), vehicle: saline with Tween-80

Measured: T/C

COc1cc2c(c(OC)c1O)-c1ccc(OC)c(=O)cc1[C@@H](NC(=O)C(F)(F)F)CC2
active: endpoint: median survival time, dose: 2.5 mg/kg/injection, schedule: Q01DX005 (ip), vehicle: Klucel (hydroxypropylcellulose) (HPC) 164 % of control | endpoint: median survival time, dose: 3.0 mg/kg/injection, schedule: Q01DX005 (ip), vehicle: Klucel (hydroxypropylcellulose) (HPC) 175 % of control | endpoint: median survival time, dose: 5.0 mg/kg/injection, schedule: Q01DX005 (ip), vehicle: Klucel (hydroxypropylcellulose) (HPC) 171 % of control | endpoint: median survival time, dose: 8.32 mg/kg/injection, schedule: Q01DX005 (ip), vehicle: Klucel (hydroxypropylcellulose) (HPC) 167 % of control | endpoint: median survival time, dose: 10.0 mg/kg/injection, schedule: Q01DX005 (ip), vehicle: Klucel (hydroxypropylcellulose) (HPC) 160 % of control | endpoint: median survival time, dose: 13.88 mg/kg/injection, schedule: Q01DX005 (ip), vehicle: Klucel (hydroxypropylcellulose) (HPC) 164 % of control
inactive: endpoint: median survival time, dose: 0.62 mg/kg/injection, schedule: Q01DX009 (ip), vehicle: Klucel (hydroxypropylcellulose) (HPC) 118 % of control | endpoint: median survival time, dose: 1.25 mg/kg/injection, schedule: Q01DX009 (ip), vehicle: Klucel (hydroxypropylcellulose) (HPC) 123 % of control

O=c1cn[nH]c2c(F)cccc12
inactive: endpoint: mean survival time, dose: 100.0 mg/kg/injection, schedule: Q01DX001 (ip), vehicle: other 97 % of control | endpoint: mean survival time, dose: 200.0 mg/kg/injection, schedule: Q01DX001 (ip), vehicle: other 104 % of control | endpoint: mean survival time, dose: 400.0 mg/kg/injection, schedule: Q01DX001 (ip), vehicle: other 98 % of control

CC1=C/C(=N\N=C2/C=C(C)CC(C)(C)C2)CC(C)(C)C1
inactive: [1] 93 % of control | [2] 91 % of control | [3] 89 % of control

CC1CC(C)SC(C)S1 (stereo not drawn)
inactive: [4] 102 % of control | [5] 105 % of control | [6] 97 % of control

O=C(N/N=C/c1ccc(O)cc1)c1ccncc1
inactive: [4] 95 % of control | [5] 91 % of control | [6] 100 % of control | endpoint: mean survival time, dose: 400.0 mg/kg/injection, schedule: Q04DX002 (ip), vehicle: saline with Tween-80 88 % of control

CCOC(=O)C(=Cc1ccc(C=C(C(=O)OCC)C(=O)OCC)cc1)C(=O)OCC
inactive: endpoint: mean survival time, dose: 50.0 mg/kg/injection, schedule: Q01DX009 (ip), vehicle: Klucel (hydroxypropylcellulose) (HPC) 95 % of control | endpoint: mean survival time, dose: 100.0 mg/kg/injection, schedule: Q01DX009 (ip), vehicle: Klucel (hydroxypropylcellulose) (HPC) 95 % of control | endpoint: mean survival time, dose: 200.0 mg/kg/injection, schedule: Q01DX009 (ip), vehicle: Klucel (hydroxypropylcellulose) (HPC) 89 % of control

O=C1C=CC(=O)N1c1nccs1
inactive: [7] 91 % of control | [8] 95 % of control | [9] 95 % of control

CCCCCCOc1ccc(/C=N\N=C\c2ccc(OCCCCCC)cc2)cc1
inactive: [10] 91 % of control | [11] 89 % of control | [12] 91 % of control

O=C1NCCN1c1ccc([N+](=O)[O-])cc1
inactive: endpoint: mean survival time, dose: 12.5 mg/kg/injection, schedule: Q01DX009 (ip), vehicle: other 89 % of control | endpoint: mean survival time, dose: 25.0 mg/kg/injection, schedule: Q01DX009 (ip), vehicle: other 103 % of control | endpoint: mean survival time, dose: 50.0 mg/kg/injection, schedule: Q01DX009 (ip), vehicle: other 94 % of control | endpoint: mean survival time, dose: 100.0 mg/kg/injection, schedule: Q01DX009 (ip), vehicle: other 96 % of control | endpoint: mean survival time, dose: 200.0 mg/kg/injection, schedule: Q01DX009 (ip), vehicle: other 96 % of control

CSc1c(N)nc(N)[nH]c1=O
inactive: endpoint: mean survival time, dose: 100.0 mg/kg/injection, schedule: Q01DX001 (ip), vehicle: alkali diluted with water 96 % of control | endpoint: mean survival time, dose: 200.0 mg/kg/injection, schedule: Q01DX001 (ip), vehicle: alkali diluted with water 94 % of control | endpoint: mean survival time, dose: 400.0 mg/kg/injection, schedule: Q01DX001 (ip), vehicle: alkali diluted with water 96 % of control

CC(=O)Nc1nc(Cl)nc2c1ncn2Cc1ccccc1
inactive: endpoint: mean survival time, dose: 75.0 mg/kg/injection, schedule: Q01DX001 (ip), vehicle: other 95 % of control | endpoint: mean survival time, dose: 150.0 mg/kg/injection, schedule: Q01DX001 (ip), vehicle: other 96 % of control

Nc1ncnc(N)c1NC(=O)c1ccc(OCCOc2ccccc2)c(Cl)c1
inactive: [11] 88 % of control

CC(=O)O[C@@H]1C[C@H](C)CC[C@H]1C(C)C
inactive: [10] 98 % of control | [11] 89 % of control

C=C1CC23CC1(O)CCC2C12C=CCC(C)(C(=O)O1)C2C3C(=O)O (stereo not drawn)
inactive: [7] 91 % of control | [8] 95 % of control | [9] 91 % of control

CCCOP(=S)(NCCOC)OCCC
inactive: [10] 103 % of control | [11] 101 % of control | [12] 103 % of control

O=S(=O)(O)c1cccc2cnccc12
inactive: [7] 98 % of control | endpoint: mean survival time, dose: 100.0 mg/kg/injection, schedule: Q04DX003 (ip), vehicle: saline sonified 93 % of control | [8] 96 % of control | endpoint: mean survival time, dose: 200.0 mg/kg/injection, schedule: Q04DX003 (ip), vehicle: saline sonified 98 % of control | [9] 93 % of control | endpoint: mean survival time, dose: 400.0 mg/kg/injection, schedule: Q04DX003 (ip), vehicle: saline sonified 98 % of control

Clc1c(Cl)c(Cl)[c]([Hg][c]2c(Cl)c(Cl)c(Cl)c(Cl)c2Cl)c(Cl)c1Cl
inactive: endpoint: mean survival time, dose: 25.0 mg/kg/injection, schedule: Q01DX009 (ip), vehicle: saline with Tween-80 100 % of control | endpoint: mean survival time, dose: 25.0 mg/kg/injection, schedule: Q04DX003 (ip), vehicle: saline 103 % of control | endpoint: mean survival time, dose: 50.0 mg/kg/injection, schedule: Q01DX009 (ip), vehicle: saline with Tween-80 103 % of control | endpoint: mean survival time, dose: 50.0 mg/kg/injection, schedule: Q04DX003 (ip), vehicle: saline 97 % of control | [7] 97 % of control | [10] 96 % of control | endpoint: mean survival time, dose: 100.0 mg/kg/injection, schedule: Q04DX003 (ip), vehicle: saline 97 % of control

O=C(OCC1OC(n2nc(SCc3ccccc3)c(=O)[nH]c2=O)C(OC(=O)c2ccccc2)C1OC(=O)c1ccccc1)c1ccccc1 (stereo not drawn)
inactive: endpoint: mean survival time, dose: 12.5 mg/kg/injection, schedule: Q01DX005 (ip), vehicle: distilled water + Tween-80 93 % of control | endpoint: mean survival time, dose: 25.0 mg/kg/injection, schedule: Q01DX005 (ip), vehicle: distilled water + Tween-80 95 % of control | endpoint: mean survival time, dose: 50.0 mg/kg/injection, schedule: Q01DX005 (ip), vehicle: distilled water + Tween-80 97 % of control | endpoint: mean survival time, dose: 100.0 mg/kg/injection, schedule: Q01DX005 (ip), vehicle: distilled water + Tween-80 88 % of control

COC(=O)CCc1nc2ccccc2c(=O)[nH]1
inactive: [1] 102 % of control | [2] 109 % of control | [3] 102 % of control

CCOC(=O)N1C2CC(C3C2N3S(=O)(=O)c2ccccc2)N1C(=O)OCC (stereo not drawn)
inactive: [10] 104 % of control | [11] 103 % of control | [12] 90 % of control

CC1CC/C(=N/NC(N)=O)C1 (stereo not drawn)
inactive: endpoint: mean survival time, dose: 50.0 mg/kg/injection, schedule: Q01DX001 (ip), vehicle: carboxymethylcellulose (CMC) 100 % of control | endpoint: mean survival time, dose: 100.0 mg/kg/injection, schedule: Q01DX001 (ip), vehicle: carboxymethylcellulose (CMC) 94 % of control | endpoint: mean survival time, dose: 200.0 mg/kg/injection, schedule: Q01DX001 (ip), vehicle: carboxymethylcellulose (CMC) 100 % of control | endpoint: mean survival time, dose: 400.0 mg/kg/injection, schedule: Q01DX001 (ip), vehicle: carboxymethylcellulose (CMC) 100 % of control

CCCCCCCCc1ccc(NNC(N)=S)cc1
inactive: endpoint: mean survival time, dose: 1.56 mg/kg/injection, schedule: Q01DX009 (ip), vehicle: saline 93 % of control and 98 % of control and 101 % of control | endpoint: mean survival time, dose: 3.12 mg/kg/injection, schedule: Q01DX009 (ip), vehicle: saline 96 % of control (2×) and 106 % of control | endpoint: mean survival time, dose: 6.25 mg/kg/injection, schedule: Q01DX009 (ip), vehicle: saline 96 % of control and 97 % of control and 104 % of control | endpoint: mean survival time, dose: 12.5 mg/kg/injection, schedule: Q01DX009 (ip), vehicle: saline 97 % of control (2×) and 101 % of control

Cc1ccc(C(=O)OCCN2CCN(c3ccccc3)CC2)c([N+](=O)[O-])c1OCc1ccccc1
inactive: endpoint: mean survival time, dose: 100.0 mg/kg/injection, schedule: Q04DX002 (ip), vehicle: other 98 % of control | endpoint: mean survival time, dose: 200.0 mg/kg/injection, schedule: Q04DX002 (ip), vehicle: other 91 % of control | endpoint: mean survival time, dose: 400.0 mg/kg/injection, schedule: Q04DX002 (ip), vehicle: other 91 % of control

O=c1[nH][nH]c(=O)c2c1ncn2C1OC(CO)C(O)C1O (stereo not drawn)
inactive: endpoint: mean survival time, dose: 12.5 mg/kg/injection, schedule: Q01DX005 (ip), vehicle: water 101 % of control | endpoint: mean survival time, dose: 25.0 mg/kg/injection, schedule: Q01DX005 (ip), vehicle: water 100 % of control | endpoint: mean survival time, dose: 50.0 mg/kg/injection, schedule: Q01DX005 (ip), vehicle: water 101 % of control | endpoint: mean survival time, dose: 100.0 mg/kg/injection, schedule: Q01DX005 (ip), vehicle: water 101 % of control | endpoint: mean survival time, dose: 200.0 mg/kg/injection, schedule: Q01DX005 (ip), vehicle: water 100 % of control

From PubChem BioAssay AID256 (DTP/NCI, 2004)
